Laboratory results as given in ChEMBL document CHEMBL3817757, “Unprecedented Binding Mode of Hydroxamate-Based Inhibitors of Glutamate Carboxypeptidase II: Structural Characterization and Biological Activity” (J Med Chem, 2016).
pIC50: −log10 of the molar value. Active and inactive are the calls of the source. The calls are words filed in the database; no cut-off is given here.

Columns and labels:
[1] = molecular target: Glutamate carboxypeptidase 2 (Homo sapiens, UniProt Q04609); assay: Inhibition of human recombinant GCP2 expressed in Schneider 2 cells preincubated for 15 mins using [3H]-NAAG/NAAG as substrate measured after 20 mins by liquid scintillation counting
Sequence of Glutamate carboxypeptidase 2 (Q04609 whole entry): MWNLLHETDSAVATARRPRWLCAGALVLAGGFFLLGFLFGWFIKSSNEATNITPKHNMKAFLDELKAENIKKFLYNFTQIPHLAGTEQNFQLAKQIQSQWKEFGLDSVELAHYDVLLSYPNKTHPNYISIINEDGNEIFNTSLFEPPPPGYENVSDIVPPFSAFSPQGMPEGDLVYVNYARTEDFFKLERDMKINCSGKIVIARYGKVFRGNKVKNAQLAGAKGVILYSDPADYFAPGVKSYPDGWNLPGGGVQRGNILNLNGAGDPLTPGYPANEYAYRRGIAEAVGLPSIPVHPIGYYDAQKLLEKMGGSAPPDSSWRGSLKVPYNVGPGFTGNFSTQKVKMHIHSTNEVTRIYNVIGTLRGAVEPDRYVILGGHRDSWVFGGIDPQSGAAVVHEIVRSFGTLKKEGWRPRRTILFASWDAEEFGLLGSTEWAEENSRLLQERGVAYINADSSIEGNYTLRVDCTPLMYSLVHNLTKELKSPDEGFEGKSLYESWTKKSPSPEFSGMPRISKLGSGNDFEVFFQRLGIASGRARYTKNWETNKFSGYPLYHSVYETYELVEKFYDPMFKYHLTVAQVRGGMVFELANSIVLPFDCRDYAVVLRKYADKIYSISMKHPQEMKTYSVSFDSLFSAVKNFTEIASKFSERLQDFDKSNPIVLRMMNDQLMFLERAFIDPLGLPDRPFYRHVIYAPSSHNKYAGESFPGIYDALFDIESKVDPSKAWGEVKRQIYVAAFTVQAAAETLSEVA

[2] = Tmax in CD1 mouse plasma at 10 mg/kg, po by LC/MS/MS analysis; format: ADME, organism-based
Plasma = assay: Plasma concentration in CD1 mouse at 10 mg/kg, po administered as single dose measured after 0.25 to 2 hrs by LC/MS/MS analysis; format: ADME, organism-based; details: in vivo
[3] = Drug uptake in CD1 mouse sciatic nerve at 10 mg/kg, po administered as single dose measured after 0.25 to 2 hrs by LC/MS/MS analysis; format: ADME, organism-based; details: in vivo
[4] = Ratio of CD1 mouse sciatic nerve AUC (0 to 2 hrs) to CD1 mouse plasma AUC (0 to 2 hrs); format: ADME, cell-free; details: in vivo
Rattus norvegicus [5] = assay: Analgesic activity in Sprague-Dawley rat chronic constrictive injury model of neuropathic pain assessed as increase in paw withdrawal latencies in response to thermal stimulus at 10 mg/kg/day, po administered via oral gavage for 15 days measured from day 4 of compound dosing; format: functional, organism-based
Rattus norvegicus [6] = assay: Effect on absolute paw withdrawal latency to thermal stimulus in sham operated Sprague-Dawley rat at 10 mg/kg/day, po administered via oral gavage for 15 days measured over compound dosing; format: ADME, organism-based; details: in vivo, 360 h

| pIC50 [1] | Tmax [2] | concentration (Plasma) | Drug uptake [3] | Ratio AUC [4] | Compound | Activity (Rattus norvegicus [5]) | Activity (Rattus norvegicus [6]) |
| --- | --- | --- | --- | --- | --- | --- | --- |
| 7.20 | – | – | – | – | O=C(CCC(Cc1ccc(C(=O)O)cc1)C(=O)O)NO (racemic) | – | – |
| 7.36 | – | – | – | – | O=C(CC[C@H](Cc1ccc(C(=O)O)cc1)C(=O)O)NO | – | – |
| 7.01 | 15 min | 121 nM | Active | 43% | O=C(CC[C@@H](Cc1ccc(C(=O)O)cc1)C(=O)O)NO | Active | Non-toxic |
